Test results published in US9700572B2, “Anti-cancer agent” (priority 2012, dated 2017).

Tests used:
[1] = system: CD44+ESA+CD24+ pancreas cancer stem cell (Capan-1); experiment: Test Example 9: cancer stem cell marker staining (CD44, CD24, ESA), FACS; type: cell-based, human
Procedure: (§1) For preparation of the glucose-containing medium, 4.75 g of Dulbecco's modified Eagle medium 2 (Nissui Pharmaceutical) was dissolved in water, added by 12.5 ml of 1M HEPES pH 7.4 (DOJINDO LABORATORIES, 342-01375), sterilized, added by 18.5 ml of 10% NAHCO3, 10 ml of L-glutamine (Sigma-Aldrich), 5 ml of Anti-Anti (Life technologies), 5 ml of MEM NON-ESSENTIAL AMINO ACID SOLUTION (Sigma-Aldrich) and 50 ml of FETAL BOVINE SERUM (Biowest) that was inactivated in a warm bath at 56° C. for 30 minutes, and finally filled up to 500 ml. The glucose inhibition medium was prepared by adding 2-Deoxy-Glucose (2-DG) (Tokyo Chemical industry) in 15 mM of final concentration to the glucose-containing medium. The medium containing 4 μM arctigenin was prepared by adding arctigenin ([…] Pharmaceutical) in 4 μM of final concentration to the glucose-containing medium or the glucose inhibition medium. The pancreas cancer cell Capan-1 (ATCC No. HTB-79) was seeded in a glucose-containing medium, incubated overnight and then incubated in each of a glucose-containing medium, a glucose inhibition medium, a glucose-containing medium containing 4 μM arctigenin and a glucose inhibition medium containing 4 μM arctigenin, or in 7 μM cisplatin (CDDP: Wako Pure Chemical Industries) for 24 hours. After collected cells, PI staining (dead cell staining) and cancer stem cell marker staining were carried out according to the usual method and an Analysis was carried out using flow cytometry (FACS). For the marker, triple positive of CD44, CD24 and ESA (CD326) which was reported as a stern cell marker of pancreas cancer was used.

[2] = system: pancreas cancer cell Capan-1; experiment: Test Example 9: PI staining (dead cell staining), FACS; type: cell-based, human; settings: 24 hours
Procedure: as §1

[3] = cited from earlier work
[4] = system: CD44+,c-MetHigh pancreas cancer stem cell (PANC-1); experiment: Test Example 8: cancer stem cell marker staining (CD44, c-Met), FACS; type: cell-based, human; settings: 3 μM arctigenin
Procedure: (§2) For preparation of the glucose-containing medium, 4.75 g of Dulbecco's modified Eagle medium 2 (Nissui Pharmaceutical) was dissolved in water, added by 12.5 ml of 1M HEPES pH 7.4 (DOJINDO LABORATORIES, 342-01375), sterilized, added by 18.5 ml of 10% NAHCO3, 10 ml of L-glutamine (Sigma-Aldrich), 5 ml of Anti-Anti (Life technologies), 5 ml of MEM NON-ESSENTIAL AMINO ACID SOLUTION (Sigma-Aldrich) and 50 ml of FETAL BOVINE SERUM (Biowest) that was inactivated in a warm bath at 56° C. for 30 minutes, and finally filled up to 500 ml. The glucose inhibition medium was prepared by adding 2-Deoxy-Glucose (2-DG) (Tokyo Chemical Industry) in 20 mM of final concentration to the glucose-containing medium. The medium containing 3 μM arctigenin was prepared by adding arctigenin ([…] Pharmaceutical) in 3 μM of final concentration to the glucose-containing medium or the glucose inhibition medium. For preparation of FACS buffer, 10 g of Bovine serum albumin Protease free (Wako Pure Chemical industries) was dissolved in 1 L of PBS (-), added by sodium azide in 0.1% of final concentration and performed filtration sterilization. For the fluorescence-labeled antibody for FACS assays, CD44 (338803 or 338807, BioLegend), CD24 (311117, BioLegend), ESA (324205, BioLegend) and c-[…]-8858, eBioscience) were used. In addition, a staining step was carried out according to the attached data sheet to the product. The pancreas cancer cell PANC-1 (ATCC No CRL-1469 was seeded in a glucose-containing medium, incubated overnight and then incubated in each of the glucose-containing medium, the glucose inhibition medium, the glucose-containing medium containing 3 μM arctigenin and the glucose inhibition medium containing 3 μM arctigenin for 24 hours. After collected cells, PI staining (dead cell staining) and cancer stem cell marker staining were carried out according to the usual method and an Analysis was carried out using flow cytometry (FACS). For a marker, triple positive of CD44, CD24 and ESA (CD326) or double positive of CD44 positive and c-Met strong positive which were reported as a stem cell marker of pancreas cancer were used.

[5] = system: pancreas cancer cell PANC-1; experiment: Test Example 8: PI staining (dead cell staining), FACS; type: cell-based, human; settings: 3 μM arctigenin
Procedure: For preparation of the glucose-containing medium, 4.75 g of Dulbecco's modified Eagle medium 2 (Nissui Pharmaceutical) was dissolved in water, added by 12.5 ml of 1M HEPES pH 7.4 (DOJINDO LABORATORIES, 342-01375), sterilized, added by 18.5 ml of 10% NAHCO3, 10 ml of L-glutamine (Sigma-Aldrich), 5 ml of Anti-Anti (Life technologies), 5 ml of MEM NON-ESSENTIAL AMINO ACID SOLUTION (Sigma-Aldrich) and 50 ml of FETAL BOVINE SERUM (Biowest) that was inactivated in a warm bath at 56° C. for 30 minutes, and finally filled up to 500 ml. The glucose inhibition medium was prepared by adding 2-Deoxy-Glucose (2-DG) (Tokyo Chemical Industry) in 20 mM of final concentration to the glucose-containing medium. The medium containing 3 μM arctigenin was prepared by adding arctigenin ([…] Pharmaceutical) in 3 μM of final concentration to the glucose-containing medium or the glucose inhibition medium. For preparation of FACS buffer, 10 g of Bovine serum albumin Protease free (Wako Pure Chemical industries) was dissolved in 1 L of PBS (-), added by sodium azide in 0.1% of final concentration and performed filtration sterilization. The pancreas cancer cell PANC-1 (ATCC No CRL-1469 was seeded in a glucose-containing medium, incubated overnight and then incubated in each of the glucose-containing medium, the glucose inhibition medium, the glucose-containing medium containing 3 μM arctigenin and the glucose inhibition medium containing 3 μM arctigenin for 24 hours. After collected cells, PI staining (dead cell staining) and cancer stem cell marker staining were carried out according to the usual method and an Analysis was carried out using flow cytometry (FACS). For a marker, triple positive of CD44, CD24 and ESA (CD326) or double positive of CD44 positive and c-Met strong positive which were reported as a stem cell marker of pancreas cancer were used.

[6] = system: pancreas cancer cell line PANC-1; settings: PANC-1 screening; cited from earlier work
[7] = system: CD44+ESA+CD24+ pancreas cancer stem cell (PANC-1); experiment: Test Example 8: cancer stem cell marker staining (CD44, CD24, ESA), FACS; type: cell-based, human; settings: 3 μM arctigenin
Procedure: as §2

[8] = system: human pancreas cancer cell line CAPAN-1; experiment: Test Example 6: antitumor evaluation in tumor model animal (CAPAN-1 Xenografts); type: in vivo, nude mouse; settings: 50 μg per mouse orally five times a week; one month; FIG. 4
Procedure: (§3) The model animal of a tumor was made by seeding human pancreas cancer cell line CAPAN-1 or PSN-1 in subcutis of back of a nude mouse (BALB-cAJnu/nu; CLEA Japan, Inc.) as a donor and transplanting the tumor mass of the provided donor mouse into subcutis of back of a recipient mouse, Arctigenin (AG), arctiin (A) and the burdock fruit extract (Example 12) were dissolved in DMSO in concentration of 10 mg/ml, diluted with a saline, and then administered orally in stomach at 50 μg per one mouse five times a week. The anticancerous was evaluated by measuring the size of the subcutaneous tumor mass of the back with time.

[9] = system: human pancreas cancer cell line PSN-1; experiment: Test Example 6: antitumor evaluation in tumor model animal (PSN-1 Xenografts); type: in vivo, nude mouse; settings: 50 μg per mouse orally five times a week; one month; FIG. 5
Procedure: as §3

## N.N.[Cl][Pt][Cl] [cisplatin, reference compound]
[1]; 7 μM cisplatin treatment
  number of the survival of CD44+ESA+CD24+ cell: 88
  ratio of CD44+ESA+CD24+ cell analyzed in viable cells: 2.02%
  ratio of CD44+ESA+CD24+ cell in all analyzed cells: 1.17%
[2]; 7 μM cisplatin
  cellular survival rate (PI staining): 58.08%

## COc1ccc(C[C@H]2COC(=O)[C@@H]2Cc2ccc(O[C@@H]3O[C@H](CO)[C@@H](O)[C@H](O)[C@H]3O)c(OC)c2)cc1OC [arctiin]
[3]
  solubility in water: hardly soluble

## COc1cc(C[C@H]2C(=O)OC[C@@H]2Cc2ccc(OC)c(OC)c2)ccc1O [arctigenin]
[4]; glucose inhibition condition, without arctigenin 0.78%
  positive ratio of CD44+,c-MetHigh cell in all analyzed cells: 0.22%
[4]; glucose inhibition condition, without arctigenin 47
  number of the survival of CD44+,c-MetHigh cell: 13
[4]; glucose-containing condition, without arctigenin 0.63%
  positive ratio of CD44+,c-MetHigh cell in all analyzed cells: 0.52%
[4]; glucose-containing condition, without arctigenin 38
  number of the survival of CD44+,c-MetHigh cell: 31
[1]; 4 μM arctigenin, glucose inhibition condition, without arctigenin 1.40%
  ratio of CD44+ESA+CD24+ cell in all analyzed cells: 0.24%
[1]; 4 μM arctigenin, glucose inhibition condition, without arctigenin 1.77%
  ratio of CD44+ESA+CD24+ cell analyzed in viable cells: 0.50%
[1]; 4 μM arctigenin, glucose inhibition condition, without arctigenin 105
  number of the survival of CD44+ESA+CD24+ cell: 18
[1]; 4 μM arctigenin, glucose-containing condition, without arctigenin 0.87%
  ratio of CD44+ESA+CD24+ cell in all analyzed cells: 1.04%
[1]; 4 μM arctigenin, glucose-containing condition, without arctigenin 1.28%
  ratio of CD44+ESA+CD24+ cell analyzed in viable cells: 1.43%
[1]; 4 μM arctigenin, glucose-containing condition, without arctigenin 65
  number of the survival of CD44+ESA+CD24+ cell: 78
[2]; 4 μM arctigenin, glucose inhibition condition (15 mM 2-DG), without arctigenin 79.10%
  cellular survival rate (PI staining): 48.73%
[2]; 4 μM arctigenin, glucose-containing condition, without arctigenin 67.57%
  cellular survival rate (PI staining): 72.80%
[5]; glucose inhibition condition (20 mM 2-DG), 24 hours, FIG. 6, without arctigenin 68.53%
  cellular survival rate (PI staining): 35.71%
[5]; glucose inhibition condition, FIG. 7, without arctigenin 88.80%
  cellular survival rate (PI staining): 27.50%
[5]; glucose-containing condition, 24 hours, FIG. 6, without arctigenin 78.20%
  cellular survival rate (PI staining): 69.50%
[5]; glucose-containing condition, FIG. 7, without arctigenin 84.70%
  cellular survival rate (PI staining): 83.30%
[6]
  cancel the viability of tumor cells under undernutrition condition: effective
[7]; glucose inhibition condition, without arctigenin 6.51%
  ratio of CD44+ESA+CD24+ cell in all analyzed cells: 0.98%
[7]; glucose inhibition condition, without arctigenin 651
  number of the survival of CD44+ESA+CD24+ cell: 98
[7]; glucose-containing condition, without arctigenin 4.41%
  ratio of CD44+ESA+CD24+ cell in all analyzed cells: 5.01%
[7]; glucose-containing condition, without arctigenin 441
  number of the survival of CD44+ESA+CD24+ cell: 501
[8]
  antitumor effect (size of subcutaneous tumor mass): antitumor effect was also obtained
[3]
  solubility in water: hardly soluble
[9]
  antitumor effect (size of subcutaneous tumor mass): antitumor effect was also obtained
